The text below walks through data of ChEMBL document CHEMBL4049450, “Discovery of 5-Azaindazole (GNE-955) as a Potent Pan-Pim Inhibitor with Optimized Bioavailability” (J Med Chem, 2017).

Values after ≈ are worked out from the molar mass of the structure shown.

Series [1] can be described thus: Kinetic solubility of compound at pH 7.4. The settings on record: buffer.
A short description of series [2]: Clearance in rat liver microsomes. The series is classed as ADME, microsome. A general note: Liver microsomes are a subcellular fraction often used to study metabolism.
A short description of series [3]: Clearance in rat hepatocytes. The class given is ADME, cell-based, Hepatocyte.
A short description of series [4]: Apparent permeability across apical to basolateral side in MDCK cells. The series is classed as ADME, cell-based, Canis lupus familiaris. Particulars: dog.
The nature of series [5]: Efflux ratio of apparent permeability in MDCK cells. Particulars: dog.
Series [6] can be described thus: Metabolic stability in rat intestinal microsomes assessed as compound remaining after 60 mins in absence of NADPH/UDPGA. The settings on record: intestinal microsomes, read-out: Stability. The series is classed as ADME, Intestine, Microsome.
A short description of series [7]: Metabolic stability in rat intestinal microsomes assessed as compound remaining after 60 mins in presence of NADPH. The series is classed as ADME, Intestine, Microsome. Particulars: read-out: Stability.
Series [8] can be described thus: Metabolic stability in rat intestinal microsomes assessed as compound remaining after 60 mins in presence of UDPGA. The class given is ADME, Intestine, Microsome. Particulars: read-out: Stability.
A short description of series [9]: Metabolic stability in rat intestinal microsomes assessed as compound remaining after 60 mins in presence of NADPH/UDPGA. The settings on record: intestinal microsomes, read-out: Stability. The series is classed as ADME, Intestine, Microsome.
Series [10] is described as follows: Clearance in rat at 1 mg/kg, iv. The class given is ADME, organism-based. The settings on record: in vivo.
The nature of series [11]: Oral bioavailability in rat at 5 mg/kg. The class given is ADME, organism-based. Particulars: in vivo.
In series [12] the test system is Plasma. Briefly: Drug metabolism in rat assessed as 6-((R)-1-(6-(5-(1-ethyl-1H-pyrazol-4-yl)-1H-pyrazolo[3,4-c]pyridin-3-yl)pyridin-2-yl)piperidin-3-ylamino)-3,4,5-trihydroxytetrahydro-2H-pyran-2-carboxylic acid metabolite formation in plasma at 5 mg/kg, po. The class given is ADME, organism-based. Particulars: in vivo.
The subject of series [13] is Plasma. Briefly: Drug level in rat plasma treated with N4-Phenylpyrimidine-2,4-diamine at 5 mg/kg, po. The settings on record: in vivo. The series is classed as ADME, organism-based.
In series [14] the test system is Plasma. Briefly: Drug metabolism in rat assessed as M1 metabolite formation in plasma at 5 mg/kg, po. The class given is ADME, organism-based. Particulars: in vivo.
The target in series [15] is T1, Serine/threonine-protein kinase pim-1 (Homo sapiens, UniProt P11309). Briefly: Inhibition of PIM1 (unknown origin) using 5FAM-ARKRRRHPSGPPTA as substrate after 90 mins in presence of ATP by caliper microfluidic mobility shift assay.
Target sequence in this assay (P11309 whole entry): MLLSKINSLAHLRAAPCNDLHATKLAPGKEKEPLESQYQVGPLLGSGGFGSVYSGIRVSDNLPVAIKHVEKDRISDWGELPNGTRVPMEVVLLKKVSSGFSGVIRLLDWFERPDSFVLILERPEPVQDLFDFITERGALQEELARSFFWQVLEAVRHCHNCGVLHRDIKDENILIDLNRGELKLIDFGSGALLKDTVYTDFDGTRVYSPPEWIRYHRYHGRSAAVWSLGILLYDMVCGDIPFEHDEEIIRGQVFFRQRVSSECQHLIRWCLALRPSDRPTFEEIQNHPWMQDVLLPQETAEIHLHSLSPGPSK
The target of series [16] is Serine/threonine-protein kinase pim-2 (Homo sapiens, UniProt Q9P1W9). Briefly: Inhibition of PIM2 (unknown origin) using 5FAM-ARKRRRHPSGPPTA as substrate after 90 mins in presence of ATP by caliper microfluidic mobility shift assay.
Series [17] deals with Serine/threonine-protein kinase pim-3 (Homo sapiens, UniProt Q86V86). In words: Inhibition of PIM3 (unknown origin) using 5FAM-ARKRRRHPSGPPTA as substrate after 90 mins in presence of ATP by caliper microfluidic mobility shift assay.
For a further series, the system named is MM1.S. Briefly: Antiproliferative activity against human MM1S cells after 72 hrs by CellTiter-Glo assay. The series is classed as functional, cell-based. In general terms: ATP-based viability assays read luminescence as a measure of living cells.
The species named for series [18] is Homo sapiens. Briefly: Inhibition of PIM in human MM1S cells assessed as reduction in S6 s235/236 phosphorylation by Western blot analysis. The class given is cell-based. For orientation: Immunoblotting shows a protein as a band on a membrane.
The species named for series [19] is Homo sapiens. In words: Inhibition of PIM in human […] cells assessed as reduction in BAD phosphorylation by Western blot analysis. The class given is cell-based.
For series [20], the species on record is Homo sapiens. Briefly: Inhibition of PIM in human […] cells assessed as reduction in 4EBP1 phosphorylation by Western blot analysis. The series is classed as cell-based.
Series [21] has as its target T1, Serine/threonine-protein kinase pim-1. In words: Inhibition of PIM1 (unknown origin) at 0.1 uM.
Target sequence in this assay (P11309 whole entry, looked up): as the sequence (P11309 whole entry) above
Series [22] has as its target Dual specificity protein kinase CLK1 (Homo sapiens) (UniProt P49759). In words: Inhibition of CLK1 (unknown origin) at 0.1 uM.
Series [23] addresses Receptor-type tyrosine-protein kinase FLT3 (Homo sapiens) (UniProt P36888). Briefly: Inhibition of FLT3 (unknown origin) at 0.1 uM.
The target of series [24] is T2, hERG (KCNH2) (Homo sapiens, UniProt Q12809). In words: Inhibition of human ERG expressed in HEK293 cells at 10 uM after 5 mins by patch clamp assay. The class given is cell-based. Particulars: HEK293 cells that express hERG.
Series [25] addresses T2, hERG (KCNH2). Briefly: Inhibition of human ERG expressed in HEK293 cells at 1 uM after 5 mins by patch clamp assay. The class given is cell-based. The settings on record: HEK293 cells that express hERG.
The species named for series [26] is Homo sapiens. Briefly: Inhibition of PIM in human MM1S cells assessed as reduction in S6 s240/244 phosphorylation by Western blot analysis. The series is classed as cell-based.

T2 sequence (Q12809 whole entry): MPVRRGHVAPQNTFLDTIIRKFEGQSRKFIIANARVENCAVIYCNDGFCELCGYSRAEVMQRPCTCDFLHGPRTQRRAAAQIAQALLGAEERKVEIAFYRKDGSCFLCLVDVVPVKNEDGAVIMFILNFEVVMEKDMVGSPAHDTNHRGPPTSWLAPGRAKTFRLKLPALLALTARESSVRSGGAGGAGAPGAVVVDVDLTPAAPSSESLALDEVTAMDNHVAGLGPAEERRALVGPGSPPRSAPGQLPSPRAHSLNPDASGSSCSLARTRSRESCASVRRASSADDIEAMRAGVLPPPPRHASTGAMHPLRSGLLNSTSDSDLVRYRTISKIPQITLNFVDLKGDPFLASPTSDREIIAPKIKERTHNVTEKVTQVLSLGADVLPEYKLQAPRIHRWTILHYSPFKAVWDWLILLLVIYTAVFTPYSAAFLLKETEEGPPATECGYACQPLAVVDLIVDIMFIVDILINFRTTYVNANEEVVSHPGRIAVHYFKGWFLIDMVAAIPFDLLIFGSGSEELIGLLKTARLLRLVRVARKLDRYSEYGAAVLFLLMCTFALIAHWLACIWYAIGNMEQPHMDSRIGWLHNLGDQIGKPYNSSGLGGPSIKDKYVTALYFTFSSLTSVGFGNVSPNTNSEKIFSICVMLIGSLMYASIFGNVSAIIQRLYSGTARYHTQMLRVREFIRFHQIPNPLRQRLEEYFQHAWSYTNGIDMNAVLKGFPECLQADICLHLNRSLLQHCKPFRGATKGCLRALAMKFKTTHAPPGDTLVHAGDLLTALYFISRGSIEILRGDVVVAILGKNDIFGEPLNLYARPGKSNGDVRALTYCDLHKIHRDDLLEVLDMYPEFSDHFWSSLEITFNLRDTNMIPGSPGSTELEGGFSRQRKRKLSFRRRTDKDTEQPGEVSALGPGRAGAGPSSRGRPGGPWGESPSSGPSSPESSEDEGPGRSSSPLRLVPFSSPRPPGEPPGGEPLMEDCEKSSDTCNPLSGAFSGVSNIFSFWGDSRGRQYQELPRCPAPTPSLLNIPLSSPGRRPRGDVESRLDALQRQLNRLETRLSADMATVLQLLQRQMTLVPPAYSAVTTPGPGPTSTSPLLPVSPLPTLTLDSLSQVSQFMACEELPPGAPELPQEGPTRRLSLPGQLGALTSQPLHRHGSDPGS
Sequence of Serine/threonine-protein kinase pim-2 (Q9P1W9 whole entry): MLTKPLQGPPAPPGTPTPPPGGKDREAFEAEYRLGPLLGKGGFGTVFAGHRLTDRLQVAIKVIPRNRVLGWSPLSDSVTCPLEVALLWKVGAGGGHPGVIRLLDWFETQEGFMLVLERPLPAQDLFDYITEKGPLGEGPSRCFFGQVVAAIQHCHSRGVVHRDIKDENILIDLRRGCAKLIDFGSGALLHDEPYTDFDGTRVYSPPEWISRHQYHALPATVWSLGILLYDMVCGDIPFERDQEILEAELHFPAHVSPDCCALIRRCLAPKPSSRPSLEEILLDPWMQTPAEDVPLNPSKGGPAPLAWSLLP
Sequence of Receptor-type tyrosine-protein kinase FLT3 (Homo sapiens) (P36888 whole entry): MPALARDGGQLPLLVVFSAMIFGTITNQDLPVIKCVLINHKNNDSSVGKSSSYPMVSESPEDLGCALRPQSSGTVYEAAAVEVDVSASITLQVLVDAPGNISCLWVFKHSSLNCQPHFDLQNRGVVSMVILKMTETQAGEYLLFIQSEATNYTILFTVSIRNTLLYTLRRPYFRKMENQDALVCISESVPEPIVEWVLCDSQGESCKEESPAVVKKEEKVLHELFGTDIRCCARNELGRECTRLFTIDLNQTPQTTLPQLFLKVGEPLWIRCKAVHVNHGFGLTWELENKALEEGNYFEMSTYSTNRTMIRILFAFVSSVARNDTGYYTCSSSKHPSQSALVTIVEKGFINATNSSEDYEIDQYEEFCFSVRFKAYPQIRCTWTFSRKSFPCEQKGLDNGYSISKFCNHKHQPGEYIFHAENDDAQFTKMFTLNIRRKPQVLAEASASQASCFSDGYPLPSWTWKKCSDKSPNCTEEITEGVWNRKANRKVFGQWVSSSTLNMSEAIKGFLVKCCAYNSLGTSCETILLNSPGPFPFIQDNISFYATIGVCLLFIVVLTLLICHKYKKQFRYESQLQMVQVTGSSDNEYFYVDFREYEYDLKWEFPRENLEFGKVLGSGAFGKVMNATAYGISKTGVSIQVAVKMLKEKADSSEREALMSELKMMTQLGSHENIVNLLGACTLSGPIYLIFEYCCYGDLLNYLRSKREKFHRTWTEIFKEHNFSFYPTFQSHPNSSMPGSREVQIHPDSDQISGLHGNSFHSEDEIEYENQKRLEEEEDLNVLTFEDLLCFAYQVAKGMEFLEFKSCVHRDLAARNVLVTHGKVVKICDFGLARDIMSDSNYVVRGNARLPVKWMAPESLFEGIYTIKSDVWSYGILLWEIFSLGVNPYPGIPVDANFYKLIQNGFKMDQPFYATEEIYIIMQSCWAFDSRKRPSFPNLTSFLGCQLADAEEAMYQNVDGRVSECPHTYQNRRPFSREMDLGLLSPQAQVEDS
Sequence of Dual specificity protein kinase CLK1 (Homo sapiens) (P49759 whole entry, looked up): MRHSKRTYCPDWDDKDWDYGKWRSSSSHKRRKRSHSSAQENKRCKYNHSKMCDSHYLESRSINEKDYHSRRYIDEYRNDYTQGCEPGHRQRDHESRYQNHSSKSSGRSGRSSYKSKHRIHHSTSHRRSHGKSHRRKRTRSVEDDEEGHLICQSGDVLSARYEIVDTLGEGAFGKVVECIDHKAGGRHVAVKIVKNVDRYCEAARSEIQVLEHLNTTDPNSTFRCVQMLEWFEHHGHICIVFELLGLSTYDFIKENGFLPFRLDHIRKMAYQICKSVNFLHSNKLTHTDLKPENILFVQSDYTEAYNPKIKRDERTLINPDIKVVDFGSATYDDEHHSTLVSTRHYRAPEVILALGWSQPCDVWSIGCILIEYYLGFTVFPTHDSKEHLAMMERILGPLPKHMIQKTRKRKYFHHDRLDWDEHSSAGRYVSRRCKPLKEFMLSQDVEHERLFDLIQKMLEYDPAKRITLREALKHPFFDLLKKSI

A word on the solubility (kinetic): it is the concentration staying in solution when a stock, usually in DMSO, is diluted into the medium. As a reminder, the Papp A→B is how fast a substance crosses the layer from the apical side. As a reminder, the efflux ratio is a quotient of directional permeabilities that is used to spot active efflux. By clearance is commonly meant the volume of plasma or blood freed of the substance per unit of time. Low values mean inefficient removal, high ones efficient removal. The compound `CCn1cc(-c2cc3c(-c4cccc(N5CCC[C@@H](N)C5)n4)n[nH]c3cn2)cn1` gave a solubility (kinetic) in series [1] of 116 µM (≈ 45.1 µg/mL). Further, the CLhep predicted in series [2] is 24 mL/min/kg; in series [3], 14 mL/min/kg. The Papp A→B in [4] amounted to 0.4 ×10⁻⁶ cm/s. Also, the efflux ratio in series [5] came out at 56. Further, the remaining at 1 h in series [6] was 96%; in series [7], 83%; in series [8], 15%; in series [9], 30%. In series [10], the clearance is 8 mL/min/kg. In addition, the bioavailability in series [11] was determined as 1%. Also, the Drug metabolism result in the series with Plasma [12], with Plasma [13] and in the series with Plasma [14] was “Metabolite_Detected” in each case.
A word on the Ki: it is a dissociation constant, usually derived from enzyme kinetics or from competition with a known ligand. For orientation: IC50 means the point on the concentration scale where inhibition reaches its midpoint. For orientation: inhibition means the percentage by which the read-out fell short of the control. As to `COc1ccc(-n2ncc3cnc(-c4cncc(C)n4)cc32)nc1N1CCC[C@H](N)C1`, the CLhep predicted was 29 mL/min/kg in series [2] and 19 mL/min/kg in series [3]. For the same compound, the remaining at 1 h in series [9] is 101%. For the same compound, the clearance in series [10] came out at 34 mL/min/kg. Also, the bioavailability in [11] came out at 103%. For the same compound, the Ki is 0.018 to 0.03 nM in [15], 0.11 nM in series [16] and 0.008 to 0.02 nM in series [17]. The IC50 in the series with MM1.S was 500 to 510 nM. For the same compound, the inhibition result was “Dose-dependent effect” in the series listed under Homo sapiens [18]; “Dose-dependent effect” in the series listed under Homo sapiens [19]; “Dose-dependent effect” in the series filed under Homo sapiens [20]; 100% in [21]; 97% in series [22]; 82% in [23]. In the series listed under Homo sapiens [26], the inhibition result was “Dose-dependent effect”. The same compound showed an inhibition at 5 min, 10 µM at hERG (KCNH2) [24] of 49%. On hERG (KCNH2) [25], the inhibition at 5 min, 1 µM was 37%.
Consider `Cc1cncc(-c2cc3c(-c4cccc(N5CCCNCC5)n4)n[nH]c3cn2)n1`, for which the solubility (kinetic) in series [1] was 38.5 µM (≈ 14.9 µg/mL). Further, the CLhep predicted in [2] was 33 mL/min/kg; in series [3], 35 mL/min/kg. In addition, the Papp A→B in [4] turned out to be 3.2 ×10⁻⁶ cm/s. In addition, in [5], the efflux ratio came to 4.9. In addition, the remaining at 1 h in [6] was 103%; in [7] it was 97%; in series [8] it was 40%; in series [9] it was 59%. This compound yielded a clearance in series [10] of 65 mL/min/kg. The bioavailability in [11] is 1.3%. For the same compound, the figures for the Ki in [15], in series [16] and in series [17] were 0.02 to 0.022 nM, 0.11 to 0.17 nM and 0.04 to 0.041 nM, respectively. In the series with MM1.S, this compound yielded an IC50 of 220 nM.
As for `CCn1cc(-c2cc3c(-c4cccc(N5CCC[C@@H](NC(C)=O)C5)n4)n[nH]c3cn2)cn1`, in the series with Plasma [13], the Drug metabolism entry is “Metabolite_Detected”.
